Assay results reported in patent EP4745137A1 (Gluetacs Therapeutics (Shanghai) Co., Ltd., priority 2023, dated 2025).

Experiments:
WEE1 = biological target: T1, WEE1 (Homo sapiens, UniProt P30291+Q96SW2); assay: Western-blot assay of substrate protein degradation in hPBMCs, WEE1; format: cell-based; settings: 24 hours of compound treatment, compounds tested at 50 nM and 500 nM (concentration of the table not stated)
T1 construct: endogenous in cells; host or cells: hPBMCs (Milecell Biotechnologies)
T1 sequence (P30291 whole entry): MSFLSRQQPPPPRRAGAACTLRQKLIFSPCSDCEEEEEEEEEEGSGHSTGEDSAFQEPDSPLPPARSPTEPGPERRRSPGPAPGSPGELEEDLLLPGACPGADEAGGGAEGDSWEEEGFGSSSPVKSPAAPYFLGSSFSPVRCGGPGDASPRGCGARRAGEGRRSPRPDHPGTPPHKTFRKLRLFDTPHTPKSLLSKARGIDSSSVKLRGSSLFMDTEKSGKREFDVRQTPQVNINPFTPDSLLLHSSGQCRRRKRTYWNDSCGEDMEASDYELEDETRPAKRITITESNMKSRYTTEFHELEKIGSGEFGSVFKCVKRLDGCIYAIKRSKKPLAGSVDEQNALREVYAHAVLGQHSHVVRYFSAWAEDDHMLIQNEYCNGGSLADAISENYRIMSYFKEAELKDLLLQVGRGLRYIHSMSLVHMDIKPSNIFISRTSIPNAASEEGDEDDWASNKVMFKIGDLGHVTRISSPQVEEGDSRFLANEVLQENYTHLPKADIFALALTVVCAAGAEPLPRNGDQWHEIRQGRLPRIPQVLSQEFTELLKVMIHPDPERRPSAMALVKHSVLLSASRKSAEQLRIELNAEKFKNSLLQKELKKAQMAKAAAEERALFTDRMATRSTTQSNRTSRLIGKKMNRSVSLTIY
T1 sequence (Q96SW2 whole entry): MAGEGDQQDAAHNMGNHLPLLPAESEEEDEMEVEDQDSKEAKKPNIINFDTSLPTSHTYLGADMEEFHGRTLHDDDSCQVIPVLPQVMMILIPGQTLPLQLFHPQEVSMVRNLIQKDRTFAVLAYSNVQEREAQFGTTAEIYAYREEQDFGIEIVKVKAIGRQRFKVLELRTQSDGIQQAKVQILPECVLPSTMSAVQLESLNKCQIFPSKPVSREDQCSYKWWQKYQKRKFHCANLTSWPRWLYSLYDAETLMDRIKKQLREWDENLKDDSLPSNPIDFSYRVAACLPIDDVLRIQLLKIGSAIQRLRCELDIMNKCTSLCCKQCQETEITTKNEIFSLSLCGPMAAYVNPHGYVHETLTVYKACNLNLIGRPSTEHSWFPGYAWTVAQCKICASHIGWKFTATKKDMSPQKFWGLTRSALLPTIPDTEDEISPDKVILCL
T1 sequence (Q16531 whole entry partner): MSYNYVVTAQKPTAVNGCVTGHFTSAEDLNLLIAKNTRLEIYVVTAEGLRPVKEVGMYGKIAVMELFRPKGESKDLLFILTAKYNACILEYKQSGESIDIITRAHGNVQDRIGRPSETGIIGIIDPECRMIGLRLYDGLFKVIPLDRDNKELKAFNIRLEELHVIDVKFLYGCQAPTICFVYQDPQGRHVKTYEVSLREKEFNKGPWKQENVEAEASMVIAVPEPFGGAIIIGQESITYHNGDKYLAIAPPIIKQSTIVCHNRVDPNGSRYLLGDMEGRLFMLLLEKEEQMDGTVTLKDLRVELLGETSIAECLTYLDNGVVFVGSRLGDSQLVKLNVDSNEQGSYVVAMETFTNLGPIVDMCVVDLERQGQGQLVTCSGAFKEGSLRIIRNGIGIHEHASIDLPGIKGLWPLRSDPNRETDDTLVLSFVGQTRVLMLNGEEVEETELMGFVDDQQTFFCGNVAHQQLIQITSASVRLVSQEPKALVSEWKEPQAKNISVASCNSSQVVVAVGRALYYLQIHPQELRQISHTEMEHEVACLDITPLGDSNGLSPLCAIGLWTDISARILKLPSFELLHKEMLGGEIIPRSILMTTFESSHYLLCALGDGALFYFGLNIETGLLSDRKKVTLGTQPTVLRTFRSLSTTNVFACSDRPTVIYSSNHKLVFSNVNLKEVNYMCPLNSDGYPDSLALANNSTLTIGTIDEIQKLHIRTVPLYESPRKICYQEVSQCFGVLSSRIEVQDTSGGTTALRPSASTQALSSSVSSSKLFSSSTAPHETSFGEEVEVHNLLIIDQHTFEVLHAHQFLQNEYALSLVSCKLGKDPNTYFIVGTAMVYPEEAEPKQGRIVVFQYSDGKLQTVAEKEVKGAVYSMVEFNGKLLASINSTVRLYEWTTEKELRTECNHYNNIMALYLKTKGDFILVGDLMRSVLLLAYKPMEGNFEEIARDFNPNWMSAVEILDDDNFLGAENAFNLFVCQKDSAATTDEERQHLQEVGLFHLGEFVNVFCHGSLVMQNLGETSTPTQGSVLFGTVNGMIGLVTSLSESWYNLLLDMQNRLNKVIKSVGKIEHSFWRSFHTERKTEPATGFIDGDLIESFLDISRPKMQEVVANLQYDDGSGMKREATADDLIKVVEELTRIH

IKZF1 = biological target: T2, IKZF1 (Homo sapiens, UniProt Q13422+Q96SW2); assay: Western-blot assay of substrate protein degradation in hPBMCs, IKZF1; format: cell-based; settings: 24 hours of compound treatment, compounds tested at 50 nM and 500 nM (concentration of the table not stated)
T2 construct: endogenous in cells; host or cells: hPBMCs (Milecell Biotechnologies)
T2 sequence (Q13422 whole entry): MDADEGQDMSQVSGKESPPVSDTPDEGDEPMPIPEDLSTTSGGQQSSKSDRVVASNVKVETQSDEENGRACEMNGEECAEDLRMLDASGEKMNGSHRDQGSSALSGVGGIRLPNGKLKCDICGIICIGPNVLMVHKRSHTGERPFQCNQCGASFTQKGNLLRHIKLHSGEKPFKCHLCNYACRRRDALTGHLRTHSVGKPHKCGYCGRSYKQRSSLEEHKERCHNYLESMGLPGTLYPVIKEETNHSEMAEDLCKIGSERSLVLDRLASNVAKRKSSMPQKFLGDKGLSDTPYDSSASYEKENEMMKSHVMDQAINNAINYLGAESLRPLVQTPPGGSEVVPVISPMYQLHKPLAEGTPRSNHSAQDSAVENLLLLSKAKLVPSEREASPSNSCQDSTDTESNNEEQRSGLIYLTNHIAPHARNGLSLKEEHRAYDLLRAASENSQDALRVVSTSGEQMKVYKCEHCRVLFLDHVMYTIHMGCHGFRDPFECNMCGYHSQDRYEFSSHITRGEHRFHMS
T2 sequence (Q96SW2 whole entry): as the sequence (Q96SW2 whole entry) above
T2 sequence (Q16531 whole entry partner): as the sequence (Q16531 whole entry partner) above

IKZF2 = biological target: T3, IKZF2 (Homo sapiens, UniProt Q96SW2+Q9UKS7); assay: Western-blot assay of substrate protein degradation in hPBMCs, IKZF2; format: cell-based; settings: 24 hours of compound treatment, compounds tested at 50 nM and 500 nM (concentration of the table not stated)
T3 construct: endogenous in cells; host or cells: hPBMCs (Milecell Biotechnologies)

IKZF3 = biological target: T4, IKZF3 (Homo sapiens, UniProt Q96SW2+Q9UKT9); assay: Western-blot assay of substrate protein degradation in hPBMCs, IKZF3; format: cell-based; settings: 24 hours of compound treatment, compounds tested at 50 nM and 500 nM (concentration of the table not stated)
T4 construct: endogenous in cells; host or cells: hPBMCs (Milecell Biotechnologies)
T4 sequence (Q9UKT9 whole entry): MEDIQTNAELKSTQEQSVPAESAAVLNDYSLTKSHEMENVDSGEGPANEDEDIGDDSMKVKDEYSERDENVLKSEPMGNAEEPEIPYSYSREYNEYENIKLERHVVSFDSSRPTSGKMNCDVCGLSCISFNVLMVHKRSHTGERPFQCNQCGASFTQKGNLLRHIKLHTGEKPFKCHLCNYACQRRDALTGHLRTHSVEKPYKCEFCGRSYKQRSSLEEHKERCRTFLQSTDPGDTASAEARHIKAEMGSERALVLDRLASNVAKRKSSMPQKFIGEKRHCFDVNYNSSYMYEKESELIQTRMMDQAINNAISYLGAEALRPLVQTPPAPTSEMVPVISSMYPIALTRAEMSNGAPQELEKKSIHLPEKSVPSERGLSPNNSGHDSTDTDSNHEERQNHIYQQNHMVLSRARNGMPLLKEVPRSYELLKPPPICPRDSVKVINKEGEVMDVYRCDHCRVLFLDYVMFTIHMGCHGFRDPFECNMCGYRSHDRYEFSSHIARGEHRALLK
T4 sequence (Q96SW2 whole entry): as the sequence (Q96SW2 whole entry) above
T4 sequence (Q16531 whole entry partner): as the sequence (Q16531 whole entry partner) above

CK1α = biological target: T5, CK1α (Homo sapiens, UniProt P48729+Q96SW2); assay: Western-blot assay of substrate protein degradation in hPBMCs, CK1α; format: cell-based; settings: 24 hours of compound treatment, compounds tested at 50 nM and 500 nM (concentration of the table not stated)
T5 construct: endogenous in cells; host or cells: hPBMCs (Milecell Biotechnologies)
T5 sequence (P48729 whole entry): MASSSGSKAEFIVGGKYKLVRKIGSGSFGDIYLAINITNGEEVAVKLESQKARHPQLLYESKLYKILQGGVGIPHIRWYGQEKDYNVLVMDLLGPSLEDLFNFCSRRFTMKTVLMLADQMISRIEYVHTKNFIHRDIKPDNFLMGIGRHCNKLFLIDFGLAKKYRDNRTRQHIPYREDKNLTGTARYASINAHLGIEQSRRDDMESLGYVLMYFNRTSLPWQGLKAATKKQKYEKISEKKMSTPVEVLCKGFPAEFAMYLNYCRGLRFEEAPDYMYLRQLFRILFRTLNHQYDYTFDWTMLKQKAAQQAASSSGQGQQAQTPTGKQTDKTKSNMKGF
T5 sequence (Q96SW2 whole entry): as the sequence (Q96SW2 whole entry) above
T5 sequence (Q16531 whole entry partner): as the sequence (Q16531 whole entry partner) above

GSPT1 = biological target: T6, GSPT1 (Homo sapiens, UniProt P15170+Q96SW2); assay: Western-blot assay of substrate protein degradation in hPBMCs, GSPT1; format: cell-based; settings: 24 hours of compound treatment, compounds tested at 50 nM and 500 nM (concentration of the table not stated)
T6 construct: endogenous in cells; host or cells: hPBMCs (Milecell Biotechnologies)
T6 sequence (P15170 whole entry): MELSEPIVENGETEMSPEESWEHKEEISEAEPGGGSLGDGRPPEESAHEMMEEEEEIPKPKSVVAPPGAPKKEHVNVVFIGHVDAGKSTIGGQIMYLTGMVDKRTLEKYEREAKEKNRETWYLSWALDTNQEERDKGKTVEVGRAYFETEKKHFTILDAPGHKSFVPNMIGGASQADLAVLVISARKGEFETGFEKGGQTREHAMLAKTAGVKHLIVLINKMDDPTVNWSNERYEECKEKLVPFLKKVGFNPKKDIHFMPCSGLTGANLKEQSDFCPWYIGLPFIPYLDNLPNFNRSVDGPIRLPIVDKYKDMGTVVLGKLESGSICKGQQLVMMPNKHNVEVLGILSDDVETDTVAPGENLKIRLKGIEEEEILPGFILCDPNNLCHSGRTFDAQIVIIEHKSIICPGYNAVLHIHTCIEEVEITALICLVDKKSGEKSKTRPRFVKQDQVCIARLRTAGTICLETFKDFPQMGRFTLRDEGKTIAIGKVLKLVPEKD
T6 sequence (Q96SW2 whole entry): as the sequence (Q96SW2 whole entry) above
T6 sequence (Q16531 whole entry partner): as the sequence (Q16531 whole entry partner) above

[1] = biological target: T7, human Cereblon WT GST-tagged protein (Homo sapiens, UniProt Q96SW2); assay: CRBN-binding affinity by HTRF (CEREBLON BINDING kit); settings: HTRF inhibitory activity, CEREBLON BINDING kit; read-out: HTRF IC50
T7 construct: purchased CISBIO 64BDCRBNPEH
T7 sequence (Q96SW2 whole entry): as the sequence (Q96SW2 whole entry) above

TMD8 = assay: Tumor cell proliferation inhibition (CellTiter-Meiluncell Luminescent Cell Viability Assay), TMD8; settings: Homo sapiens, TMD8, 96 h, read-out: inhibitory activity (IC50, nM) against tumor cells proliferation, TMD8
[2] = tested on: Human acute T lymphocytic leukemia cells (Molt-4); assay: Tumor cell proliferation inhibition (CellTiter-Meiluncell Luminescent Cell Viability Assay), Molt-4; settings: MOLT-4, 96 h, read-out: inhibitory activity (IC50, nM) against tumor cells proliferation, Molt 4
NCI-H1975 = assay: Tumor cell proliferation inhibition (CellTiter-Meiluncell Luminescent Cell Viability Assay), NCI-H1975; settings: Homo sapiens, NCI-H1975, 96 h, read-out: inhibitory activity (IC50, nM) against tumor cells proliferation, H1975
Procedure: The tumor cells used herein were cultured in a cell culture medium listed in table 2 at 37°C in an incubator with 5% CO2. Prior to experimentation, all cell lines used were correctly identified by STR profiling, and tested negative for mycoplasma contamination using a mycoplasma detection kit through routine screenings.
On the following day, the test compounds of the present disclosure were subjected to serial dilution. […] Subsequently, 0.5 µL of the test compound dilution was transferred into the 96-well plate containing the cells, with each well containing 100 µL of cell culture medium. […] Into the 96-well plate, the diluted test compounds and corresponding detection reagents were added, resulting in final test compound concentrations of 500 nM and 10 nM, respectively. The experimental procedure is described below using the diluted 2 µM test compound as an example.
After the cells were treated with the compounds of the present disclosure for a specified period (the treatment durations were shown in Table 3), the cell viability assay reagent was added to the culture medium according to the kit's instructions to determine cell viability. […] All controls were treated using the same procedure as the compounds of the present disclosure. The growth inhibition curves for the compounds of the present disclosure were plotted using Prism GraphPad software, and the IC50 values were calculated therefrom.

[3] = tested on: Human breast cancer cells (MDA-MB-231); assay: Tumor cell proliferation inhibition (CellTiter-Meiluncell Luminescent Cell Viability Assay), MDA-MB-231; settings: MDA-MB-231, 96 h, read-out: inhibitory activity (IC50, nM) against tumor cells proliferation, MDA-MB-231

SMILES | Weel substrate protein remaining % (WEE1) | IKZF 1 substrate protein remaining % (IKZF1) | IKZF2 substrate protein remaining % (IKZF2) | IKZF3 substrate protein remaining % (IKZF3) | CK1a substrate protein remaining % (CK1α) | GSPT1 substrate protein remaining % (GSPT1) | IC50 [1] [nM] | IC50 (TMD8) [nM] | IC50 [2] [nM] | IC50 (NCI-H1975) [nM] | IC50 [3] [nM]
O=C1CCC(N2Cc3cc(CN4CC=C(c5cccc6cnccc56)CC4)ccc3C2=O)C(=O)N1 (centres unmarked) [GT-04666, 3-(5-((4-(isoquinolin-5-yl)-3,6-dihydropyridin-1(2H)-yl)methyl)-1-oxoisoindolin-2-yl)piperidine-2,6-dione] | A (0% ≤ substrate protein remaining % ≤ 80%) | A (0% ≤ substrate protein remaining % ≤ 80%) | A (0% ≤ substrate protein remaining % ≤ 80%) | A (0% ≤ substrate protein remaining % ≤ 80%) | A (0% ≤ substrate protein remaining % ≤ 80%) | A (0% ≤ substrate protein remaining % ≤ 80%) | < 500 | 10 to 50 | 1 to 5 | 10 to 50 | 5 to 10
O=C1CCC(N2Cc3cc(CN4CCN(c5cc(Cl)cc(Cl)c5)CC4)ccc3C2=O)C(=O)N1 (centres unmarked) [GT-04614, 3-(5-((4-(3,5-dichlorophenyl)piperazin-1-yl)methyl)-1-oxoisoindolin-2-yl)piperidine-2,6-dione] | A (0% ≤ substrate protein remaining % ≤ 80%) | B (80%< substrate protein remaining %≤ 100%) | B (80%< substrate protein remaining %≤ 100%) | B (80%< substrate protein remaining %≤ 100%) | B (80%< substrate protein remaining %≤ 100%) | A (0% ≤ substrate protein remaining % ≤ 80%) | 500 to 1000 | 10 to 50 | 1 to 5 | 10 to 50 | 10 to 50
Cc1ccc(C2CCN(Cc3ccc4c(c3)CN(C3CCC(=O)NC3=O)C4=O)CC2)s1 (centres unmarked) [GT-04573, 3-(5-((4-(5-methylthiophen-2-yl)piperidin-1-yl)methyl)-1-oxoisoindolin-2-yl)piperidine-2,6-dione] | A (0% ≤ substrate protein remaining % ≤ 80%) | A (0% ≤ substrate protein remaining % ≤ 80%) | A (0% ≤ substrate protein remaining % ≤ 80%) | A (0% ≤ substrate protein remaining % ≤ 80%) | A (0% ≤ substrate protein remaining % ≤ 80%) | A (0% ≤ substrate protein remaining % ≤ 80%) | 1000 to 1500 | 50 to 100 | 5 to 10 | 50 to 100 | 10 to 50
Cc1ccc(C2=CCN(Cc3ccc4c(c3)CN(C3CCC(=O)NC3=O)C4=O)CC2)s1 (centres unmarked) [GT-04572, 3-(5-((4-(5-methylthiophen-2-yl)-3,6-dihydropyridin-1(2H)-yl)methyl)-1-oxoisoindolin-2-yl)piperidine-2,6-dione] | A (0% ≤ substrate protein remaining % ≤ 80%) | A (0% ≤ substrate protein remaining % ≤ 80%) | A (0% ≤ substrate protein remaining % ≤ 80%) | A (0% ≤ substrate protein remaining % ≤ 80%) | A (0% ≤ substrate protein remaining % ≤ 80%) | A (0% ≤ substrate protein remaining % ≤ 80%) | 500 to 1000 | 10 to 50 | 1 to 5 | 10 to 50 | 10 to 50
Cn1cc(C2=CCN(Cc3ccc4c(c3)CN(C3CCC(=O)NC3=O)C4=O)CC2)c2ccc(F)cc21 (centres unmarked) [GT-04723, 3-(5-((4-(6-fluoro-1-methyl-1H-indol-3-yl)-3,6-dihydropyridin-1(2H)-yl)methyl)-1-oxoisoindolin-2-yl)piperidine-2,6-dione] | A (0% ≤ substrate protein remaining % ≤ 80%) | A (0% ≤ substrate protein remaining % ≤ 80%) | A (0% ≤ substrate protein remaining % ≤ 80%) | A (0% ≤ substrate protein remaining % ≤ 80%) | A (0% ≤ substrate protein remaining % ≤ 80%) | A (0% ≤ substrate protein remaining % ≤ 80%) | < 500 | 10 to 50 | 1 to 5 | 10 to 50 | 5 to 10
O=C1CCC(N2Cc3cc(CN4CC=C(c5cncc(Cl)c5)CC4)ccc3C2=O)C(=O)N1 (centres unmarked) [GT-04620, 3-(5-((5-chloro-3',6'-dihydro-[3,4'-bipyridin]-1'(2'H)-yl)methyl)-1-oxoisoindolin-2-yl)piperidine-2,6-dione] | A (0% ≤ substrate protein remaining % ≤ 80%) | A (0% ≤ substrate protein remaining % ≤ 80%) | A (0% ≤ substrate protein remaining % ≤ 80%) | A (0% ≤ substrate protein remaining % ≤ 80%) | B (80%< substrate protein remaining %≤ 100%) | A (0% ≤ substrate protein remaining % ≤ 80%) | 500 to 1000 | 10 to 50 | 1 to 5 | 10 to 50 | 10 to 50
O=C1CCC(N2Cc3cc(CN4CC=C(c5nccc(Cl)c5Cl)CC4)ccc3C2=O)C(=O)N1 (centres unmarked) [GT-04570, 3-(5-((3,4-dichloro-3',6'-dihydro-[2,4'-bipyridin]-1'(2'H)-yl)methyl)-1-oxoisoindolin-2-yl)piperidine-2,6-dione] | A (0% ≤ substrate protein remaining % ≤ 80%) | A (0% ≤ substrate protein remaining % ≤ 80%) | A (0% ≤ substrate protein remaining % ≤ 80%) | A (0% ≤ substrate protein remaining % ≤ 80%) | A (0% ≤ substrate protein remaining % ≤ 80%) | A (0% ≤ substrate protein remaining % ≤ 80%) | 500 to 1000 | 10 to 50 | 1 to 5 | 10 to 50 | 1 to 5
O=C1CCC(N2Cc3cc(CN4CC(=C5CCOc6cc(F)ccc65)C4)ccc3C2=O)C(=O)N1 (centres unmarked) [GT-04701, 3-(5-((3-(7-fluorochroman-4-ylidene)azetidin-1-yl)methyl)-1-oxoisoindolin-2-yl)piperidine-2,6-dione] | A (0% ≤ substrate protein remaining % ≤ 80%) | A (0% ≤ substrate protein remaining % ≤ 80%) | A (0% ≤ substrate protein remaining % ≤ 80%) | A (0% ≤ substrate protein remaining % ≤ 80%) | A (0% ≤ substrate protein remaining % ≤ 80%) | A (0% ≤ substrate protein remaining % ≤ 80%) | < 500 | 50 to 100 | 1 to 5 | 50 to 100 | 10 to 50
O=C1CCC(N2Cc3cc(CN4CC=C(c5ccco5)CC4)ccc3C2=O)C(=O)N1 (centres unmarked) [GT-04617, 3-(5-((4-(furan-2-yl)-3,6-dihydropyridin-1(2H)-yl)methyl)-1-oxoisoindolin-2-yl)piperidine-2,6-dione] | A (0% ≤ substrate protein remaining % ≤ 80%) | A (0% ≤ substrate protein remaining % ≤ 80%) | A (0% ≤ substrate protein remaining % ≤ 80%) | A (0% ≤ substrate protein remaining % ≤ 80%) | B (80%< substrate protein remaining %≤ 100%) | A (0% ≤ substrate protein remaining % ≤ 80%) | < 500 | 100 to 500 | 5 to 10 | 100 to 500 | 10 to 50
O=C1CCC(N2Cc3cc(CN4C[C@H]5C[C@@H]4CN5c4cccc(Cl)c4Cl)ccc3C2=O)C(=O)N1 (stereo partly drawn) [GT-04724, 3-(5-(((1R,4R)-5-(2,3-dichlorophenyl)-2,5-diazabicyclo[2.2.1]heptan-2-yl)methyl)-1-oxoisoindolin-2-yl)piperidine-2,6-dione] | A (0% ≤ substrate protein remaining % ≤ 80%) | A (0% ≤ substrate protein remaining % ≤ 80%) | A (0% ≤ substrate protein remaining % ≤ 80%) | A (0% ≤ substrate protein remaining % ≤ 80%) | A (0% ≤ substrate protein remaining % ≤ 80%) | A (0% ≤ substrate protein remaining % ≤ 80%) | < 500 | 50 to 100 | 5 to 10 | 50 to 100 | 10 to 50
